Test results published in ChEMBL document CHEMBL2413050, “Design and synthesis of conformationally restricted capsaicin analogues based in the 1, 3, 4-thiadiazole heterocycle reveal a novel family of transient receptor potential vanilloid 1 (TRPV1) antagonists” (Eur J Med Chem, 2013).

Experiments:
[1] = target: Transient receptor potential cation channel subfamily V member 1 (Rattus norvegicus) (UniProt O35433); assay: Antagonist activity at rat TRPV1 receptor expressed in HEK293T cells assessed as inhibition of temperature-induced calcium flux at 1 uM after 30 mins by Fluo-4AM based fluorescence assay relative to control; type: cell-based; conditions: HEK-293T
Sequence of Transient receptor potential cation channel subfamily V member 1 (Rattus norvegicus) (O35433 whole entry): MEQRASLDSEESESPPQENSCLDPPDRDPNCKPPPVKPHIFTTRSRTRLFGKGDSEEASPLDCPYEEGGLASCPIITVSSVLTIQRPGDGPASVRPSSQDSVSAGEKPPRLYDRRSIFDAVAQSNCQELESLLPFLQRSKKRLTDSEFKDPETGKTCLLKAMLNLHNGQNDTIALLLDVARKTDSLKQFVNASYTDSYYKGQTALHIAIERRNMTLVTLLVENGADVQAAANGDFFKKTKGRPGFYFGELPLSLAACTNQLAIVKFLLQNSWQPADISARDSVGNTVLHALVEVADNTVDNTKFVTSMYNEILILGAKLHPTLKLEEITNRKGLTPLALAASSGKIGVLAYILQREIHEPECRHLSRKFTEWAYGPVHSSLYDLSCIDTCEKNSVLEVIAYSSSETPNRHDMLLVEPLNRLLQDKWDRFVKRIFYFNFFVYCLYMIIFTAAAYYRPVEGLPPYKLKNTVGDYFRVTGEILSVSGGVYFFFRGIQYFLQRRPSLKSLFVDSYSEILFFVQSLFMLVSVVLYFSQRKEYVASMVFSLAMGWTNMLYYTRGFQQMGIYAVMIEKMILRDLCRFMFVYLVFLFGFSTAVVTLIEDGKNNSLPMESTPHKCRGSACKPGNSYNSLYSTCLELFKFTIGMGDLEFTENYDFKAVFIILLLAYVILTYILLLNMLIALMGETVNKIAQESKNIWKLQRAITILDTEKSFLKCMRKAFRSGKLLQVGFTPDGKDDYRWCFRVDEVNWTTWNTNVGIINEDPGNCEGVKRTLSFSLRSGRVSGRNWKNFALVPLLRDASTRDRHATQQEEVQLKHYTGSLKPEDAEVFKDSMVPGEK

[2] = target: T1, Transient receptor potential cation channel subfamily V member 1 (Rattus norvegicus, UniProt O35433); assay: Antagonist activity at rat TRPV1 receptor expressed in HEK293T cells assessed as inhibition of capsaicin-induced calcium flux after 30 mins by Fluo-4AM based fluorescence assay; type: cell-based, HEK-293T
T1 sequence (O35433 whole entry): as above

[3] = target: Transient receptor potential cation channel subfamily V member 1 (Rattus norvegicus) (UniProt O35433); assay: Antagonist activity at rat TRPV1 receptor expressed in HEK293T cells assessed as inhibition of capsaicin-induced calcium flux at 1 uM after 30 mins by Fluo-4AM based fluorescence assay relative to control; type: cell-based; conditions: HEK-293T
[4] = target: T2, Uncharacterized protein (Gallus gallus) (UniProt F1NJH8); assay: Antagonist activity at chicken TRPV1 receptor assessed as inhibition of capsaicin-induced calcium flux at 1 uM after 30 mins by cell based Fluo-4AM fluorescence assay relative to control
T2 sequence (whole entry): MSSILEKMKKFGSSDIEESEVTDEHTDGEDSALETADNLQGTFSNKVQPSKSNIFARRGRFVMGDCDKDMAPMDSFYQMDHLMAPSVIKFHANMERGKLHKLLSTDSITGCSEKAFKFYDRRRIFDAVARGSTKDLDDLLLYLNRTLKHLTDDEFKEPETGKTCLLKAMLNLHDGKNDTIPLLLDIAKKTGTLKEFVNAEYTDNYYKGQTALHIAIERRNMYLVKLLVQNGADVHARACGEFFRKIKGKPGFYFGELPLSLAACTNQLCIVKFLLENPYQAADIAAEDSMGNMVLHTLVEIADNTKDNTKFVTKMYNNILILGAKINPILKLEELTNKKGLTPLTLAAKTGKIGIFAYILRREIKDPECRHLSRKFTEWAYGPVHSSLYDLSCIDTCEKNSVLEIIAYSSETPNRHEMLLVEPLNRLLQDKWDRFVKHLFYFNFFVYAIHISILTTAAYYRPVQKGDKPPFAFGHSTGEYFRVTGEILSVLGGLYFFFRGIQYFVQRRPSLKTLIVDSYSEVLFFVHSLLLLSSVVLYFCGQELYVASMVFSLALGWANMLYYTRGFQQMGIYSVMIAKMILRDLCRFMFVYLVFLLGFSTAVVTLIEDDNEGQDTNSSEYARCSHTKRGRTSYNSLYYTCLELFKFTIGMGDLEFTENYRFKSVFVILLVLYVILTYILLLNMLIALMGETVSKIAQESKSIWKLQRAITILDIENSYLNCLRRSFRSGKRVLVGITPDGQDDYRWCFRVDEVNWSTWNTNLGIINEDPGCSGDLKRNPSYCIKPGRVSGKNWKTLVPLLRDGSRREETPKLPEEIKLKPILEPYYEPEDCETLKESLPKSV

[5] = target: T1, Transient receptor potential cation channel subfamily V member 1; assay: Antagonist activity at rat TRPV1 receptor expressed in HEK293T cells assessed as inhibition of temperature-induced calcium flux after 30 mins by Fluo-4AM based fluorescence assay; type: cell-based, HEK-293T

| inhibition [1] [%] | IC50 [2] [nM] | inhibition [3] [%] | inhibition [4] [%] | IC50 [5] [nM] | Structure (SMILES) |
| --- | --- | --- | --- | --- | --- |
| 94 | 0.77 | 95.3 |  |  | CCCCCCC(=O)Nc1nnc(-c2ccc(O)c(OC)c2)s1 |
| 93.7 | 0.33 | 94.5 | 85.4 | 1.09 | CCCCCCCC(=O)Nc1nnc(-c2cc(I)c(O)c(OC)c2)s1 |
| 88.8 | 2.61 | 95.5 | 92.6 |  | CCCCCC(=O)Nc1nnc(-c2ccc(O)c(OC)c2)s1 |
| 92.9 | 0.18 | 98.8 | 79.4 | 0.05 | CCCCCCCCC(=O)Nc1nnc(-c2ccc(O)c(OC)c2)s1 |
| 94.3 | 1.47 | 96.6 | 95.3 | 0.29 | CCCCCC(=O)Nc1nnc(-c2cc(I)c(O)c(OC)c2)s1 |
| 92.4 | 6.07 | 90.8 |  |  | CCCCCCC(=O)Nc1nnc(-c2cc(I)c(O)c(OC)c2)s1 |
| 91.9 | 0.34 | 96.9 | 80.1 | 0.15 | CCCCCCCCC(=O)Nc1nnc(-c2cc(I)c(O)c(OC)c2)s1 |
| 66.4 |  | 92.7 | 8.97 |  | CC(C)(C)c1ccc(NC(=O)N2CCN(c3ncccc3Cl)CC2)cc1 |
| 89.8 | 0.15 | 97.7 | 81.2 |  | CCCCCCCC(=O)Nc1nnc(-c2ccc(O)c(OC)c2)s1 |
